Like-named read-outs stand apart in the source and are kept apart here.
Tests used:
[1] = target: T1, human PPAR-alpha ligand binding domain (Homo sapiens, UniProt Q07869); assay: PPAR alpha ligand binding (displacement of DAUDA); settings: for Kd: DAUDA displacement
T1 sequence (Q07869 179-468): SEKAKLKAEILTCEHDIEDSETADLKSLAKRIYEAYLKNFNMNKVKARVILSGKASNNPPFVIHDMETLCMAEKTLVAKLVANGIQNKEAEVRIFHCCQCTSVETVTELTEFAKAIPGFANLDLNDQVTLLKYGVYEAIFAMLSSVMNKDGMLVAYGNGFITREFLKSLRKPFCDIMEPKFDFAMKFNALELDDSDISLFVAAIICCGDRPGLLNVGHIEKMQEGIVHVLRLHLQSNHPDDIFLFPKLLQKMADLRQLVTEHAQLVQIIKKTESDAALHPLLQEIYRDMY

[2] = 7-day oral gavage study, metabolic parameters, body weight and food consumption in CR SD rats; type: in vivo, rat; settings: for Cholesterol (plasma) / Glucose (plasma) / Insulin (plasma) / Triglycerides (plasma): n=5; for Bodyweight change: continued till end of treatment
Procedure: Two groups (n=5) of CR SD rats (approximately 300 g) were treated with 2 dose levels of perfluorinated compounds (15 and 25 mg/kg/day body weight). Animals were administered test substances, dissolved in corn oil, by oral gavage, daily for 7 days. One group of 20 CR SD rays was also treated with vehicle (corn oil) alone. Body weight and food consumption were monitored daily.
Twenty-four hours after the last dose the animals were killed by an increasing concentration of carbon dioxide. Blood was collected by cardiac puncture and plasma was prepared and stored at −70° C. until analysed.
Plasma was analysed for triglycerides, cholesterol, and glucose, using kits purchased from Sigma. Concentrations of plasma insulin were determined using a commercially available enzyme-immunoassay-based kit from Amersham Biosciences. All assays were carried out as specified by the manufacturer.

[3] = system: PC3 cells (human prostate cancer-derived); assay: SRB growth inhibition assay, PC3 cells; type: cell-based
Procedure: (§1) The effect of perfluorinated compounds on the inhibition of tumour cell growth was assessed iii vitro using three human tumour-derived cell lines. Cancer cell lines were tested using the sulphorhodamine B (SRB) assay (which measures cellular protein and is directly related to cell number), which is utilised by the […] to screen anti-cancer agents.
(§2) HT-29 cells (human colon tumour-derived), MCF7 cells (human breast cancer-derived) and PC3 cells (human prostate cancer-derived) were harvested and diluted (to 5×10^4 cells per ml, 1×10^5 cells per ml and 7.5×10^4 cells per ml respectively) in RPMI 1640 medium containing 5% FBS, 2 mM glutamine and. 50 μg/ml gentamicin. 100 μl of cell suspension per well was added to 96 well plates and allowed to attach overnight. Cells were exposed to test compounds dissolved in DMSO in 100 μl of medium to give final drug concentrations of 0, 0.3, 1, 3, 10, 30, 100, 300, 1000 and 3000 μM (and DMSO at 0.25%). (n=6 for each drug concentration). After 48 hours, cells were fixed in 10% trichloroacetic acid (TCA) at 4° C. for 1-2 hours then washed using water and subsequently air-dried. 100 μl SRB solution (0.4%) in 1% Acetic Acid was added to each well, and plates were incubated at room temperature for 10 minutes. Unbound dye was removed by washing with 1% acetic acid. Plates were air-dried and bound stain was solubilised in 10 mM Tris base and the absorbance read at 520 nm.

PPAR gamma = target: T2, PPAR gamma (Homo sapiens, UniProt P37231); assay: PPAR gamma transactivation assay in COS-1 cells; type: cell-based
T2 construct: 25 ng of vector DNA carrying PPAR alpha, delta or gamma; expressed in transfected cells; host or cells: COS-1 (African green monkey kidney cells)
T2 sequence (P37231 1-505): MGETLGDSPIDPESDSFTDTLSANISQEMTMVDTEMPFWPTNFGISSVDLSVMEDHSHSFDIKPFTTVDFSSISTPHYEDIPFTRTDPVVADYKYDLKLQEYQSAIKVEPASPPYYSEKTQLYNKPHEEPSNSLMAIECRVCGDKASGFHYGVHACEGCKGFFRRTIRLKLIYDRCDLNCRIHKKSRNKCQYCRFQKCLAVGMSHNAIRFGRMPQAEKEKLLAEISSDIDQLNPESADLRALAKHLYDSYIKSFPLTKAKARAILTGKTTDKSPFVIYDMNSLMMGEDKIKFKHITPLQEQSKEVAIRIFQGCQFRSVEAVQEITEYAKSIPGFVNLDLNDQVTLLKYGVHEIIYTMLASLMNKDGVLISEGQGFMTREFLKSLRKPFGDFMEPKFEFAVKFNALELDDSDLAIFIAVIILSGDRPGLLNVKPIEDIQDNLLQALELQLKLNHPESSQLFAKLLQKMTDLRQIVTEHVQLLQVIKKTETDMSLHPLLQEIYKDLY

[4] = target: T3, human PPAR-gamma ligand binding domain (Homo sapiens, UniProt P37231); assay: PPAR gamma ligand binding (displacement of cis-parinaric acid)
T3 sequence (P37231 202-505): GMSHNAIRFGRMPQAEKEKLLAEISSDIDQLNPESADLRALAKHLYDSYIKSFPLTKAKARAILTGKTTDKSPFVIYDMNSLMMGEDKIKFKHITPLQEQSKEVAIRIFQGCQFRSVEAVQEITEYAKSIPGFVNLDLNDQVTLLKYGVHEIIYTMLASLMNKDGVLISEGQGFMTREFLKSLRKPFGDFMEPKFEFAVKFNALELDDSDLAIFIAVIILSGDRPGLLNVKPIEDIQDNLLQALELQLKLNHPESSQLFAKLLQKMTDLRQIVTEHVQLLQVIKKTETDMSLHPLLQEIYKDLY

[5] = system: MCF7 cells (human breast cancer-derived); assay: SRB growth inhibition assay, MCF7 cells; type: cell-based; settings: 48 hours exposure
Procedure: as §1, §2

[6] = system: three human tumour-derived cell lines (HT-29, MCF7, PC3); assay: SRB growth inhibition, summary over the three human tumour cell lines; type: cell-based; settings: over HT-29, MCF7 and PC3
Procedure: as §1, §2

PPAR delta = target: T4, PPAR delta (Homo sapiens, UniProt Q03181); assay: PPAR delta transactivation assay in COS-1 cells; type: cell-based; set-up: Fold activation of PPAR delta: dose or concentration left out as unconfirmed; settings: for Fold activation of PPAR delta: mean±SD n=3; for Inhibition of activation of PPAR delta (by a factor of): transactivation assay
T4 construct: 25 ng of vector DNA carrying PPAR alpha, delta or gamma; expressed in transfected cells; host or cells: COS-1 (African green monkey kidney cells)
T4 sequence (Q03181 1-441): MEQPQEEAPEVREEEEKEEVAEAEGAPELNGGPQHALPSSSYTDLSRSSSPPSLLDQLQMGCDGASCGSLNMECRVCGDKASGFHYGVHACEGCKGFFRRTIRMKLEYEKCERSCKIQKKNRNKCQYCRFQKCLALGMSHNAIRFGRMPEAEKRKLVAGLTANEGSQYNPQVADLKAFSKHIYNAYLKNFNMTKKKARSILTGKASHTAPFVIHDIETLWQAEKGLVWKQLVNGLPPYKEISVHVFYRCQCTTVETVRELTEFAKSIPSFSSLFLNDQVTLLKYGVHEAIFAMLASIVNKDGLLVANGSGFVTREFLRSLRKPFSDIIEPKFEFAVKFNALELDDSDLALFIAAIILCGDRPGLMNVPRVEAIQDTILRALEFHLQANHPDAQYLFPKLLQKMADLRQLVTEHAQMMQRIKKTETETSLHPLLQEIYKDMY

[7] = system: HT-29 cells (human colon tumour-derived); assay: SRB growth inhibition assay, HT-29 cells; type: cell-based; settings: 48 hours exposure
Procedure: as §1, §2

[8] = Plasma levels of PFOA after 11 days oral dosing in SD rats (LC/MS/MS); type: in vivo, rat; settings: 25 mg/kg oral daily for 11 days, 24 hours after final administration
Procedure: The study consisted of one control group of 8 male CD Sprague Dawley rats (8-10-weeks old; obtained from Harlan, UK) and 4 test groups that contained 4 rats. Animals received powdered RM1 diet ad libitum for the duration of the study. […] All chemicals were dissolved in Mazola corn oil (at 2.5 mg/ml) and test compounds were administered at 10 ml/kg bodyweight. Control animal received Mazola corn oil only. All animals were sacrificed after 11 days. Animals were killed by exposure to rising concentrations of CO2, and blood was harvested into lithium/heparin tubes for plasma.
Rat plasma samples were denatured by adding acetonitrile, and the amount of perfluorooctanoic acid (PFOA) present was determined by LC/MS/MS.

[9] = 21-day diet study, bodyweights of SD rats; type: in vivo, rat; settings: 300 ppm in diet, 21 days
Procedure: This experiment investigated the effect of compounds of different % linearity on body weight over a longer study period.
The diet study consisted of one control group of 4 male animals and 4 test groups of 4 male animals (as specified earlier in this Example). Animals received powdered RM1 diet alone, or RM1 diet containing 300 ppm XEN1001 or XEN1002, ad libitum for the duration of the study. Bodyweights were measured daily for 21 days.

[10] = 15 mg/kg/day oral gavage 7 days
[11] = 25 mg/kg/day oral gavage 7 days
[12] = Homo sapiens, PC-3, 48 hours exposure
[13] = at 10 μM (maximal activation by test compound), value in parenthesis = positive control at 10 μM

SMILES | Reduction in binding affinity for PPAR alpha compared to PFOA [1] | Cholesterol (plasma) [2, 10] | Glucose (plasma) [2, 10] | Insulin (plasma) [2, 10] | Triglycerides (plasma) [2, 10] | Plasma insulin, % of control values ([2]; 25 mg/kg) | Cholesterol (plasma) [2, 11] | Glucose (plasma) [2, 11] | Insulin (plasma) [2, 11] | Triglycerides (plasma) [2, 11] | IC50 [3, 12] | Fold activation of PPAR gamma (PPAR gamma; [13]) | Kd [4] | Reduction in binding affinity for PPAR gamma compared to PFOA [4] | IC50 ([5]; Homo sapiens, MCF7, 48 h) | IC50 ([6]; Homo sapiens) | Fold activation of PPAR delta (PPAR delta) | Inhibition of activation of PPAR delta (by a factor of) (PPAR delta) | IC50 ([7]; Homo sapiens, HT-29, 48 h) | Plasma concentration of PFOA (free acid) [8] | also measured
O=C(O)C(F)(F)C(F)(F)C(F)(F)C(F)(F)F [PFPenA, Perfluoropentanoic acid] | 10 fold | 1.83 ± 0.41 mmol/L | 16.22 ± 1.29 mmol/L | 124.7 ± 126.3 ng/mL | 1.24 ± 0.04 mmol/L | 33.9% | 1.67 ± 0.20 mmol/L | 16.67 ± 0.93 mmol/L | 62.6 ± 68.26 ng/mL | 1.07 ± 0.37 mmol/L | 2630 µM | 5.07 ± 2.29 fold | 17 µM | approximately 50 fold | > 3000 µM | ~3000 µM | 0.45 ± 0.04 fold | 2.2 | > 3000 µM |  | Kd ([1]; PPAR Receptor Binding Kd Alpha (apparent Kd)): 62 µM
N.O=C(O)C(F)(F)C(F)(F)C(F)(F)C(F)(F)C(F)(F)C(F)(F)C(F)(F)F [XEN1001, Ammoniumperfluorooctanoate] |  |  |  |  |  |  |  |  |  |  |  |  |  |  |  |  |  |  |  | equimolar concentrations of PFOA | Lost bodyweight up to day [9]: 7 days
O=C(O)C(F)(F)C(F)(F)C(F)(F)C(F)(F)C(F)(F)C(F)(F)F [PFHA, Perfluoroheptanoic acid] | 30 fold | 1.50 ± 0.23 mmol/L | 16.43 ± 2.59 mmol/L | 114.2 ± 90.06 ng/mL | 0.94 ± 0.20 mmol/L |  | 1.46 ± 0.17 mmol/L | 18.15 ± 2.78 mmol/L | 165.1 ± 114.4 ng/mL | 0.75 ± 0.26 mmol/L | 321 µM | 3.43 ± 2.62 fold | 99 µM |  | 573 µM | 200 to 600 µM | 0.45 ± 0.28 fold | 2.2 | 371 µM |  | 
O=C(O)C(F)(F)C(F)(F)F [PFPA, Perfluropropionic acid] |  | 1.28 ± 0.10 mmol/L | 15.46 ± 1.13 mmol/L | 129 ± 36.05 ng/mL | 1.02 ± 0.38 mmol/L |  | 1.39 ± 0.39 mmol/L | 14.97 ± 1.29 mmol/L | 179.7 ± 177.1 ng/mL | 0.95 ± 0.17 mmol/L |  |  |  | ~2 fold |  |  | 0.63 ± 0.25 fold | 1.6 |  |  | Kd ([1]; read-out: PPAR Receptor Binding Kd Alpha (apparent Kd)): 2 µM; Bodyweight change ([2]; 15 and 25 mg/kg/day): lost bodyweight after day 3; IC50 ([3]; 48 hours exposure): > 3000 µM; Fold activation of PPAR gamma (PPAR gamma; at 1 mM, mean±SD n=3): 1.86 ± 0.81 fold; Kd ([4]; read-out: PPAR Receptor Binding Kd Gamma (apparent Kd), cis-parinaric acid displacement): 0.6 µM; IC50 [5]: > 3000 µM; IC50 [6]: ~3000 µM; IC50 [7]: > 3000 µM
COC(=O)C(F)(F)C(F)(F)C(F)(F)C(F)(F)C(F)(F)C(F)(F)C(F)(F)F [MPOA, Methyl perfluorooctanoate] |  | 1.17 ± 0.31 mmol/L | 11.48 ± 1.27 mmol/L | 4.87 ± 2.611 ng/mL | 0.28 ± 0.08 mmol/L | 15.6% | 0.73 ± 0.23 mmol/L | 12.99 ± 2.07 mmol/L | 28.74 ± 17.22 ng/mL | 0.6 ± 0.89 mmol/L | > 3000 µM |  |  |  | > 2790 µM | ~3000 µM | 1.51 ± 0.31 fold |  | > 3000 µM | equimolar concentrations of PFOA | Plasma insulin, % of control values ([2]; 15 mg/kg): 2.6%; Weight loss ([2]; 15 mg/kg, 7 days): 8.2%; Plasma cholesterol, % of control values ([2]; 25 mg/kg): 36.7%; Plasma triglycerides, % of control values ([2]; 25 mg/kg): 33.7%; Bodyweight lost ([2]; 25 mg/kg, after day 6, terminated early): 8%; Bodyweight change ([2]; 15 and 25 mg/kg/day): lost bodyweight after day 3; Food consumption ([2]; 15 and 25 mg/kg/day, versus control): dose-related, decreases in food consumption; Plasma glucose, % of control values ([2]; dose not stated): 78.6%; Fold activation of PPAR gamma (PPAR gamma; at 1 mM, mean±SD n=3): 2.92 ± 0.12 fold
